Data published in ChEMBL document CHEMBL5291721, “A preclinical secondary pharmacology resource illuminates target-adverse drug reaction associations of marketed drugs” (Nat Commun, 2023).

What was measured:
[1] = molecular target: T1, Type-1 angiotensin II receptor (Homo sapiens, UniProt P30556)
T1 sequence (P30556 whole entry): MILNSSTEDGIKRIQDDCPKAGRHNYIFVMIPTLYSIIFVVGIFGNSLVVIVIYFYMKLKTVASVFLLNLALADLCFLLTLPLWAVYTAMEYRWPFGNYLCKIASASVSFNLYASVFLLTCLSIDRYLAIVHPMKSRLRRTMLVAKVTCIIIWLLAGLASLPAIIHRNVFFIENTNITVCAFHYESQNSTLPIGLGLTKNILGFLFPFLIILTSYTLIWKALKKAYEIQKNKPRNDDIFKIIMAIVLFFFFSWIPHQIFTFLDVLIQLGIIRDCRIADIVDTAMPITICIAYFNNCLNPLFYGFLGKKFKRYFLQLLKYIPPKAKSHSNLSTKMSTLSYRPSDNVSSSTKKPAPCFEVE

[2] = molecular target: T2, Equilibrative nucleoside transporter 1 (Homo sapiens, UniProt Q99808)
T2 sequence (Q99808 whole entry): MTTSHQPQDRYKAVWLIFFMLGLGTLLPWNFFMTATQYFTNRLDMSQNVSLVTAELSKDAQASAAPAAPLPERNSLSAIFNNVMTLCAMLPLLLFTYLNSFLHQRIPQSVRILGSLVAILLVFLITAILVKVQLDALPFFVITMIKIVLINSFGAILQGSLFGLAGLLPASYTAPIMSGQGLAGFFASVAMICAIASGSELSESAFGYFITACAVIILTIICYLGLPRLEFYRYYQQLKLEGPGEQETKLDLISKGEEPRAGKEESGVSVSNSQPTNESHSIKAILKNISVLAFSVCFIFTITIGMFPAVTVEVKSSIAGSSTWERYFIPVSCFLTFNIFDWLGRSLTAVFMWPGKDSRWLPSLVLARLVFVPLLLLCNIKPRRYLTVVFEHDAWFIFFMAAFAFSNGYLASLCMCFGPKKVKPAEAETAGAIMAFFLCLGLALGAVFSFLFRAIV

[3] = molecular target: Beta-1 adrenergic receptor (Homo sapiens, UniProt P08588); assay type: functional
Progesterone receptor = molecular target: T3, Progesterone receptor (Homo sapiens, UniProt P06401); assay type: functional
T3 sequence (P06401 whole entry): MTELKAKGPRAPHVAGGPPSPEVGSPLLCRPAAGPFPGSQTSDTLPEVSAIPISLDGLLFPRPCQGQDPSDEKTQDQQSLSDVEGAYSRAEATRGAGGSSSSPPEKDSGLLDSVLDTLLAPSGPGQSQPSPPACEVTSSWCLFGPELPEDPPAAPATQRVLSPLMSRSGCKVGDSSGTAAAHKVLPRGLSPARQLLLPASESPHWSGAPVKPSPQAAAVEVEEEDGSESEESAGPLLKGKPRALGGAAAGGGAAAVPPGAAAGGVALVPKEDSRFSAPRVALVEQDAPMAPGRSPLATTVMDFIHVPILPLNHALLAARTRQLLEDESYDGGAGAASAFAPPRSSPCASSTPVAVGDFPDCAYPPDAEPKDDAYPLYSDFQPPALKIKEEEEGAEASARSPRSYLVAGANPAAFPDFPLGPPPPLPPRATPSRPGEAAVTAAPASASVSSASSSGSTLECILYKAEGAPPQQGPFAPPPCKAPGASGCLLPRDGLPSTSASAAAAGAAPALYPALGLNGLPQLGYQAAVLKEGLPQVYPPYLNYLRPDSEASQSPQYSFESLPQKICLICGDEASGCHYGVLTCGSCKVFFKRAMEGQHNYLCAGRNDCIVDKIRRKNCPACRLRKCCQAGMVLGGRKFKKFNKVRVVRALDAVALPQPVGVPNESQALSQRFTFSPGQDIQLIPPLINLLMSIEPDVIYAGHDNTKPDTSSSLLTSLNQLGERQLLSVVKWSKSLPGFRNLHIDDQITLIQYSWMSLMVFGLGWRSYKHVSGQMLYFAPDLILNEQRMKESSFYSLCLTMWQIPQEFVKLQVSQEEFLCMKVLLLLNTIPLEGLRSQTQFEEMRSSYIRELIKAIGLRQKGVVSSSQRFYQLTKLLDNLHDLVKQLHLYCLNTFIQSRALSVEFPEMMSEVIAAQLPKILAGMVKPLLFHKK

[4] = molecular target: Delta-type opioid receptor (Homo sapiens, UniProt P41143)
[5] = molecular target: T4, Muscarinic acetylcholine receptor M2 (Homo sapiens, UniProt P08172); assay type: functional, cell-based
T4 sequence (P08172 whole entry): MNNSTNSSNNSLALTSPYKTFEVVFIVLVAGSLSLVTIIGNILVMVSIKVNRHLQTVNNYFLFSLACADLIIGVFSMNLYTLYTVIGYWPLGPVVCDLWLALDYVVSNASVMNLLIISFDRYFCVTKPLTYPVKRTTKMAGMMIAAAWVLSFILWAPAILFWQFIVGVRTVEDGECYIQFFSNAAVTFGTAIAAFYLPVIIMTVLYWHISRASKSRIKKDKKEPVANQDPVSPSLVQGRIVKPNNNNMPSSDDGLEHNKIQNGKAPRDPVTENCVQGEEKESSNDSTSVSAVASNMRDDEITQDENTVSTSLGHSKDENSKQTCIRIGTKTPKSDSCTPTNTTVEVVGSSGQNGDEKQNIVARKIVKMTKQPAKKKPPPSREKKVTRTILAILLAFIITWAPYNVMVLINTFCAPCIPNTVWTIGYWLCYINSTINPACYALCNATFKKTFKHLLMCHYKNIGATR

[6] = molecular target: T4, Muscarinic acetylcholine receptor M2; assay type: functional, cell-based; remark: listed apart in the source
[7] = molecular target: 5-hydroxytryptamine receptor 2A (Homo sapiens, UniProt P28223); assay type: functional, cell-based
Note: assay procedure not described here.

Sequence of 5-hydroxytryptamine receptor 2A (P28223 whole entry): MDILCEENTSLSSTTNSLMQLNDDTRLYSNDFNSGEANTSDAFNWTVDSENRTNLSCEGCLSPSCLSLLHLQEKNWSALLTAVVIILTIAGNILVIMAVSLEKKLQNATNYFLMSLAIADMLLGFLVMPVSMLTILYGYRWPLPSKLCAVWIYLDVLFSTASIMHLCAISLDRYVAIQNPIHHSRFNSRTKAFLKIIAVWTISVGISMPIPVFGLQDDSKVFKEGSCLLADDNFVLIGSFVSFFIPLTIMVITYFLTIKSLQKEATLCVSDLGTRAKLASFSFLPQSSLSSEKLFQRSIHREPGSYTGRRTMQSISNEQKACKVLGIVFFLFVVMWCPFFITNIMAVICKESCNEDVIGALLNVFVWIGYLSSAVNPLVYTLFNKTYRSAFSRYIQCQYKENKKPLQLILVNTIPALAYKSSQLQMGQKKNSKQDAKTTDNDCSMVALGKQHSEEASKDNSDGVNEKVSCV
Sequence of Beta-1 adrenergic receptor (P08588 whole entry): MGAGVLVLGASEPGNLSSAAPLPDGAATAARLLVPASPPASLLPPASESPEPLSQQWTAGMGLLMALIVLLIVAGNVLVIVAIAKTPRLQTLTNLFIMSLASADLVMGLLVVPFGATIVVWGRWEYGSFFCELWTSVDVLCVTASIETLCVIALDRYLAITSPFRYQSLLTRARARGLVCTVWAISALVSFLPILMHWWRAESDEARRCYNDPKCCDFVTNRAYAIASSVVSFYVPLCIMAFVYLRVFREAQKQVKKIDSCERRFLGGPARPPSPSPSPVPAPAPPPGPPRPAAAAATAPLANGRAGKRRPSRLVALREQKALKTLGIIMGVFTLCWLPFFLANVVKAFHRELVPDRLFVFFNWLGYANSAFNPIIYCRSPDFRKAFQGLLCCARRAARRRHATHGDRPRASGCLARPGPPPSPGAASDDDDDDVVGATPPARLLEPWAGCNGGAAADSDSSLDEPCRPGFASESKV
Sequence of Delta-type opioid receptor (P41143 whole entry): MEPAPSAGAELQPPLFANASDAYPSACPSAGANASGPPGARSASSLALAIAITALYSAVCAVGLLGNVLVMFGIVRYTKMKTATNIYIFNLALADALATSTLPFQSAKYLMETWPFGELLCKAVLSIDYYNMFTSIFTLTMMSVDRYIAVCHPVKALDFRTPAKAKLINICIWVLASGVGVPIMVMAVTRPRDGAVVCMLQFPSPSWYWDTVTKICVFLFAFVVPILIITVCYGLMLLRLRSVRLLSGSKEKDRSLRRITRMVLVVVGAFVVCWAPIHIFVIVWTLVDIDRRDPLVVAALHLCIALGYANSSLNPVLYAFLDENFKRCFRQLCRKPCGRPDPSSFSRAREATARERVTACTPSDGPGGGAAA

CC(=O)N1CCN(c2ccc(OCC3COC(Cn4ccnc4)(c4ccc(Cl)cc4Cl)O3)cc2)CC1 (configuration not stated) [KETOCONAZOLE]
AC50 [1]: > 10 µM | AC50 [2]: 35.2 µM | AC50 [3]: > 10 µM | AC50 (Progesterone receptor): > 10 µM | AC50 [4]: > 10 µM

CN1CCC(=C2c3ccccc3CC(=O)c3sccc32)CC1 [KETOTIFEN]
AC50 [1]: > 10 µM | AC50 [2]: > 10 µM | AC50 [5]: > 10 µM | AC50 [6]: 1.9 µM | AC50 (Progesterone receptor): > 10 µM | AC50 [4]: > 30 µM

COc1nc(C)nc(Cl)c1N=C1NCCN1 [MOXONIDINE]
AC50 [1]: > 30 µM | AC50 [5]: > 30 µM | AC50 [6]: > 30 µM | AC50 [3]: > 30 µM | AC50 (Progesterone receptor): > 30 µM | AC50 [4]: > 30 µM

CC(C)(C)NCC(O)COc1cccc2c1CC(O)C(O)C2 (configuration not stated) [NADOLOL]
AC50 [1]: > 10 µM | AC50 [2]: > 10 µM | AC50 [5]: > 10 µM | AC50 [6]: > 10 µM | AC50 [3]: 0.102 µM | AC50 (Progesterone receptor): > 10 µM | AC50 [4]: > 30 µM

CN1CCCN=C1/C=C/c1cccc(O)c1 [OXANTEL]
AC50 [1]: > 30 µM | AC50 [7]: > 30 µM | AC50 [5]: > 30 µM | AC50 [6]: > 30 µM | AC50 [3]: > 30 µM | AC50 (Progesterone receptor): 10 µM | AC50 [4]: > 30 µM

CC1NCCOC1c1ccccc1 (configuration not stated) [PHENMETRAZINE]
AC50 [1]: > 30 µM | AC50 [7]: > 30 µM | AC50 [2]: > 30 µM | AC50 [5]: > 10 µM | AC50 [6]: > 10 µM | AC50 [3]: > 10 µM | AC50 [4]: > 30 µM

CC(C)(N)Cc1ccccc1 [PHENTERMINE]
AC50 [1]: > 30 µM | AC50 [7]: > 30 µM | AC50 [2]: > 30 µM | AC50 [5]: > 10 µM | AC50 [6]: > 10 µM | AC50 [3]: > 10 µM | AC50 [4]: > 30 µM

CCOC(=O)O[C@]1(C(=O)COC(=O)CC)CC[C@H]2[C@@H]3CCC4=CC(=O)C=C[C@]4(C)[C@H]3[C@@H](O)C[C@@]21C [PREDNICARBATE]
AC50 [1]: > 10 µM | AC50 [7]: > 10 µM | AC50 [2]: > 10 µM | AC50 [5]: > 10 µM | AC50 [6]: > 10 µM | AC50 [3]: > 10 µM | AC50 [4]: > 30 µM

CCC(=O)[C@@]1(C)[C@H](C)C[C@H]2[C@@H]3CCC4=CC(=O)C=C[C@]4(C)[C@H]3[C@@H](O)C[C@@]21C [RIMEXOLONE]
AC50 [1]: > 10 µM | AC50 [7]: > 10 µM | AC50 [2]: > 10 µM | AC50 [5]: > 10 µM | AC50 [6]: > 10 µM | AC50 [3]: > 10 µM | AC50 [4]: > 30 µM

Nc1ccc(S(=O)(=O)Nc2ncccn2)cc1 [SULFADIAZINE]
AC50 [1]: > 10 µM | AC50 [2]: > 10 µM | AC50 [5]: > 10 µM | AC50 [6]: > 10 µM | AC50 [3]: > 10 µM | AC50 (Progesterone receptor): > 10 µM | AC50 [4]: > 30 µM

Cc1cccc(Nc2ccncc2S(=O)(=O)NC(=O)NC(C)C)c1 [TORSEMIDE]
AC50 [1]: > 10 µM | AC50 [2]: > 10 µM | AC50 [5]: > 10 µM | AC50 [6]: > 10 µM | AC50 [3]: > 10 µM | AC50 (Progesterone receptor): > 10 µM | AC50 [4]: > 30 µM

CCN(C(C)=O)c1cccc(-c2ccnc3c(C#N)cnn23)c1 [ZALEPLON]
AC50 [1]: > 30 µM | AC50 [2]: > 30 µM | AC50 [5]: > 10 µM | AC50 [6]: > 10 µM | AC50 [3]: > 30 µM | AC50 (Progesterone receptor): > 30 µM | AC50 [4]: > 30 µM

SITOSTEROLS
AC50 [1]: > 30 µM | AC50 [7]: > 30 µM | AC50 [2]: > 30 µM | AC50 [5]: > 30 µM | AC50 [6]: > 30 µM | AC50 [3]: > 30 µM | AC50 [4]: > 30 µM
